Reference: PubChem BioAssay AID248 (DTP/NCI, 2004)
Several values for one entry are separate records, joined by “and”; a condition that tells them apart may be missing. Equal values may be shown once. Toxic doses and inconclusive results are not listed.

System: L1210 leukemia ip in BDF1 mice, survival T/C
Assay: NCI In Vivo Anticancer Drug Screen. Data for tumor model L1210 Leukemia (intraperitoneal) in B6D2F1 (BDF1) mice
Details: endpoint: mean survival time, higher = longer survival
In short: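 Transplantable tumor model; survival measured in treated vs vehicle control mice. Value = treated/control.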

[1] = dose: 100.0 mg/kg/injection, schedule: Q01DX009 (ip), vehicle: saline
[2] = dose: 100.0 mg/kg/injection, schedule: Q04DX003 (ip), vehicle: Klucel (hydroxypropylcellulose) (HPC)
[3] = dose: 200.0 mg/kg/injection, schedule: Q04DX003 (ip), vehicle: Klucel (hydroxypropylcellulose) (HPC)
[4] = dose: 400.0 mg/kg/injection, schedule: Q04DX003 (ip), vehicle: Klucel (hydroxypropylcellulose) (HPC)
[5] = dose: 100.0 mg/kg/injection, schedule: Q01DX009 (ip), vehicle: Klucel (hydroxypropylcellulose) (HPC)
[6] = dose: 200.0 mg/kg/injection, schedule: Q01DX009 (ip), vehicle: Klucel (hydroxypropylcellulose) (HPC)
[7] = dose: 25.0 mg/kg/injection, schedule: Q01DX009 (ip), vehicle: saline with Tween-80
[8] = dose: 50.0 mg/kg/injection, schedule: Q01DX009 (ip), vehicle: saline with Tween-80

For `CC[P+]1(c2ccccc2)CCCc2ccc3ccccc3c21` (centres undefined), the T/C (dose: 6.25 mg/kg/injection, schedule: Q01DX009 (ip), vehicle: saline with Tween-80) was 117 % of control.

For `CCC(C)C(CCN(C)CC)(CNC(=O)CN(CC)CC)c1cccc2ccccc12` (centres undefined), the T/C (dose: 50.0 mg/kg/injection, schedule: Q04DX002 (ip), vehicle: saline) was 106 % of control, the T/C [1] was 96 % of control and the T/C (dose: 100.0 mg/kg/injection, schedule: Q04DX002 (ip), vehicle: saline) was 97 % of control.

In the case of `O=c1cc(NCc2c(Cl)cccc2[N+](=O)[O-])[nH]c(=O)[nH]1`, the T/C [2] is reported as 98 % of control, the T/C [3] is reported as 95 % of control and the T/C [4] is reported as 95 % of control.

For `CC12C=CC3(CCC4C(C)(C)C(=O)C(O)=CC4(C)C3CC1=O)C2` (centres undefined), the T/C [5] was 103 % of control, the T/C [2] was 95 % of control and the T/C [6] was 94 % of control. The T/C [3] was 98 % of control, the T/C (dose: 400.0 mg/kg/injection, schedule: Q01DX009 (ip), vehicle: Klucel (hydroxypropylcellulose) (HPC)) was 94 % of control and the T/C [4] was 98 % of control.

`O=C(CBr)CC(=O)Nc1ccccc1` was tested, and the T/C [7] was 97 % of control and the T/C [8] was 91 % of control.

`Cc1ccc(N=Nc2ccc(C)cc2NC(=O)Nc2cc(Cl)ccc2C)cc1` was tested, and the T/C [5] was 93 % of control and the T/C [6] was 94 % of control.

For `Cc1nc2ccccc2o1`, the T/C (dose: 100.0 mg/kg/injection, schedule: Q04DX002 (ip), vehicle: other) was 104 % of control, the T/C (dose: 200.0 mg/kg/injection, schedule: Q04DX002 (ip), vehicle: other) was 96 % of control and the T/C (dose: 400.0 mg/kg/injection, schedule: Q04DX002 (ip), vehicle: other) was 118 % of control.

With `CN(C)c1ccc(C(Nc2ccccc2)C(Nc2ccccc2)c2ccc(N(C)C)cc2)cc1` (centres undefined) the T/C (dose: 100.0 mg/kg/injection, schedule: Q01DX001 (ip), vehicle: other) was 102 % of control, the T/C (dose: 200.0 mg/kg/injection, schedule: Q01DX001 (ip), vehicle: other) was 87 % of control and the T/C (dose: 400.0 mg/kg/injection, schedule: Q01DX001 (ip), vehicle: other) was 89 % of control.

`N#CSc1ccc(Nc2ccc(SC#N)cc2)cc1` was tested, and the T/C (dose: 12.5 mg/kg/injection, schedule: Q01DX009 (ip), vehicle: Klucel (hydroxypropylcellulose) (HPC)) was 95 % of control and the T/C (dose: 25.0 mg/kg/injection, schedule: Q01DX009 (ip), vehicle: Klucel (hydroxypropylcellulose) (HPC)) was 98 % of control.

With `CCCCOC(=O)CNC(=O)N(CC)C(=NCC)c1ccc(NC(=O)c2ccc(C(=O)Nc3ccc(C(=NCC)N(CC)C(=O)NCC(=O)OCCCC)cc3)cc2)cc1` the T/C (dose: 1.87 mg/kg/injection, schedule: Q01DX015 (ip), vehicle: methylcellulose (MC)) was 106 % of control, the T/C (dose: 7.5 mg/kg/injection, schedule: Q01DX015 (ip), vehicle: methylcellulose (MC)) was 162 % of control and 189 % of control and the T/C (dose: 15.0 mg/kg/injection, schedule: Q01DX015 (ip), vehicle: methylcellulose (MC)) was 121 % of control.

For `O=C1OCCN1/N=C/c1ccc(Cl)cc1`, the T/C [7] was 102 % of control, the T/C (dose: 37.5 mg/kg/injection, schedule: Q01DX009 (ip), vehicle: saline with Tween-80) was 98 % of control and the T/C [8] was 102 % of control. For the same molecule, the T/C (dose: 75.0 mg/kg/injection, schedule: Q01DX009 (ip), vehicle: saline with Tween-80) was 93 % of control, the T/C (dose: 100.0 mg/kg/injection, schedule: Q04DX002 (ip), vehicle: saline with Tween-80) was 96 % of control and the T/C (dose: 200.0 mg/kg/injection, schedule: Q04DX002 (ip), vehicle: saline with Tween-80) was 107 % of control.

For `O=P(c1ccccc1)(N1CCCC1)N1CCCC1`, the T/C (dose: 100.0 mg/kg/injection, schedule: Q04DX003 (ip), vehicle: saline) was 95 % of control and the T/C (dose: 200.0 mg/kg/injection, schedule: Q04DX003 (ip), vehicle: saline) was 92 % of control.

With `C=CCCC/C(C)=N/NS(=O)(=O)c1ccc(C)cc1` the T/C [8] was 112 % of control, the T/C (dose: 100.0 mg/kg/injection, schedule: Q01DX009 (ip), vehicle: saline with Tween-80) was 92 % of control and the T/C (dose: 200.0 mg/kg/injection, schedule: Q01DX009 (ip), vehicle: saline with Tween-80) was 106 % of control.

For `O=CC(OC(=O)c1ccccc1)C(OC(=O)c1ccccc1)C(COC(c1ccccc1)(c1ccccc1)c1ccccc1)OC(=O)c1ccccc1` (centres undefined), the T/C (dose: 50.0 mg/kg/injection, schedule: Q01DX001 (ip), vehicle: carboxymethylcellulose (CMC)) was 97 % of control, the T/C (dose: 100.0 mg/kg/injection, schedule: Q01DX001 (ip), vehicle: carboxymethylcellulose (CMC)) was 103 % of control and the T/C (dose: 200.0 mg/kg/injection, schedule: Q01DX001 (ip), vehicle: carboxymethylcellulose (CMC)) was 103 % of control. The T/C (dose: 400.0 mg/kg/injection, schedule: Q01DX001 (ip), vehicle: carboxymethylcellulose (CMC)) was 91 % of control.

`CCCCCOCC` was tested, and the T/C (dose: 100.0 mg/kg/injection, schedule: Q01DX001 (ip), vehicle: saline) was 103 % of control, the T/C [1] was 96 % of control and the T/C (dose: 200.0 mg/kg/injection, schedule: Q01DX001 (ip), vehicle: saline) was 105 % of control. The T/C (dose: 200.0 mg/kg/injection, schedule: Q01DX009 (ip), vehicle: saline) was 101 % of control, the T/C (dose: 400.0 mg/kg/injection, schedule: Q01DX001 (ip), vehicle: saline) was 103 % of control and the T/C (dose: 400.0 mg/kg/injection, schedule: Q01DX009 (ip), vehicle: saline) was 101 % of control.
